The values that follow come from PMC4440651, “Thymoquinone Inhibits Escherichia coli ATP Synthase and Cell Growth” (PLoS ONE, 2015).

The target in the experiment is T1, E. coli F1Fo ATP synthase (F1-ATPase) (Escherichia coli, UniProt P0ABA6+P0ABB0+P0ABB4).
T1 construct: gene atpD; with F1 alpha (atpA), gamma (atpG), delta and epsilon subunits; Fo (ab2c10–14) in the membrane preparation
Briefly: ATPase activity assay (liberated Pi) on purified F1 and F1Fo membranes; reversal by dilution or centrifuge column. The format is biochemical.

Usually IC50 stands for the concentration that inhibits the measured activity by half.

With `CC1=CC(=O)C(C(C)C)=CC1=O` [TQ, thymoquinone], the IC50 was roughly 37 µM.
